Values joined by “and” are separate entries in the source; they are usually repeats but may differ in a detail not shown here. Identical values can stand only once. Inconclusive results and toxic doses are left out. Peptide text beside a SMILES is read from it. * marks the point of attachment. Boc = CC(C)(C)OC(=O)*; NHNH2 = NN*
Tested on: P388 leukemia ip, CD2F1 mice, survival T/C
Experiment: NCI In Vivo Anticancer Drug Screen. Data for tumor model P388 Leukemia (intraperitoneal) in CD2F1 (CDF1) mice
Conditions: endpoint: median survival time, higher = longer survival
Outline: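 Mice carrying the transplanted tumor received test compound or vehicle. Survival was recorded in each group, and the value is the treated-group measurement divided by that of the vehicle-treated control group.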

[1] = dose: 100.0 mg/kg/injection, schedule: Q01DX009 (ip), vehicle: saline with Tween-80
[2] = dose: 200.0 mg/kg/injection, schedule: Q01DX009 (ip), vehicle: saline with Tween-80
[3] = dose: 12.5 mg/kg/injection, schedule: Q01DX009 (ip), vehicle: saline with Tween-80
[4] = dose: 25.0 mg/kg/injection, schedule: Q01DX009 (ip), vehicle: saline with Tween-80
[5] = dose: 50.0 mg/kg/injection, schedule: Q01DX009 (ip), vehicle: saline with Tween-80
[6] = dose: 50.0 mg/kg/injection, schedule: Q01DX009 (ip), vehicle: Klucel (hydroxypropylcellulose) (HPC)
[7] = dose: 100.0 mg/kg/injection, schedule: Q01DX009 (ip), vehicle: Klucel (hydroxypropylcellulose) (HPC)
[8] = dose: 200.0 mg/kg/injection, schedule: Q01DX009 (ip), vehicle: Klucel (hydroxypropylcellulose) (HPC)
[9] = dose: 50.0 mg/kg/injection, schedule: Q01DX005 (ip), vehicle: saline with Tween-80
[10] = dose: 100.0 mg/kg/injection, schedule: Q01DX005 (ip), vehicle: saline with Tween-80
[11] = dose: 60.0 mg/kg/injection, schedule: Q01DX005 (ip), vehicle: saline with Tween-80
[12] = dose: 120.0 mg/kg/injection, schedule: Q01DX005 (ip), vehicle: saline with Tween-80
[13] = dose: 240.0 mg/kg/injection, schedule: Q01DX005 (ip), vehicle: saline with Tween-80
[14] = dose: 50.0 mg/kg/injection, schedule: Q01DX009 (ip), vehicle: water
[15] = dose: 100.0 mg/kg/injection, schedule: Q01DX009 (ip), vehicle: water
[16] = dose: 200.0 mg/kg/injection, schedule: Q01DX009 (ip), vehicle: water

Compound: C[n+]1c(-c2cccc(OCCCCCCCCOc3cccc(-c4c5cc(N)ccc5c5ccc(N)cc5[n+]4C)c3)c2)c2cc(N)ccc2c2ccc(N)cc21
- T/C (dose: 0.09 mg/kg/injection, schedule: Q01DX009 (ip), vehicle: water): 163 % of control
- T/C (dose: 0.19 mg/kg/injection, schedule: Q01DX009 (ip), vehicle: water): 154 % of control
- T/C (dose: 0.38 mg/kg/injection, schedule: Q01DX009 (ip), vehicle: water): 151 % of control
- T/C (dose: 0.39 mg/kg/injection, schedule: Q01DX009 (ip), vehicle: water): 170 % of control
- T/C (dose: 0.75 mg/kg/injection, schedule: Q01DX009 (ip), vehicle: water): 150 % of control
- T/C (dose: 0.78 mg/kg/injection, schedule: Q01DX009 (ip), vehicle: water): 179 % of control
- T/C (dose: 1.5 mg/kg/injection, schedule: Q01DX009 (ip), vehicle: water): 91 % of control
- T/C (dose: 1.56 mg/kg/injection, schedule: Q01DX009 (ip), vehicle: water): 213 % of control

Compound: O=C(NNC(O)C(F)(F)F)c1ccccc1 (configuration not stated)
- T/C (dose: 100.0 mg/kg/injection, schedule: Q04DX003 (ip), vehicle: Klucel (hydroxypropylcellulose) (HPC)): 103 % of control
- T/C (dose: 200.0 mg/kg/injection, schedule: Q04DX003 (ip), vehicle: Klucel (hydroxypropylcellulose) (HPC)): 103 % of control
- T/C (dose: 400.0 mg/kg/injection, schedule: Q04DX003 (ip), vehicle: Klucel (hydroxypropylcellulose) (HPC)): 110 % of control

Compound: O=C1/C(=C/c2ccccc2)Cc2ccccc21
- T/C [1]: 100 % of control
- T/C [2]: 100 % of control
- T/C (dose: 400.0 mg/kg/injection, schedule: Q01DX009 (ip), vehicle: saline with Tween-80): 95 % of control

Compound: CCN(CC)CCOc1cccc2c1C(=O)c1ccccc1C2=O
- T/C (dose: 50.0 mg/kg/injection, schedule: Q01DX009 (ip), vehicle: saline): 105 % of control and 98 % of control
- T/C (dose: 100.0 mg/kg/injection, schedule: Q01DX009 (ip), vehicle: saline): 106 % of control

Compound: N=C(N)c1ccc2[nH]c(/C=C/c3cc4ccc(C(=N)N)cc4o3)cc2c1
- T/C (dose: 100.0 mg/kg/injection, schedule: Q04DX003 (ip), vehicle: suspension in saline): 170 % of control

Compound: COc1ccc2c(NCCCCCCCCNc3c4ccc(OC)cc4nc4cc([N+](=O)[O-])ccc34)c3ccc([N+](=O)[O-])cc3nc2c1
- T/C (dose: 0.63 mg/kg/injection, schedule: Q01DX009 (ip), vehicle: other): 88 % of control
- T/C (dose: 1.25 mg/kg/injection, schedule: Q01DX009 (ip), vehicle: other): 88 % of control
- T/C (dose: 2.5 mg/kg/injection, schedule: Q01DX009 (ip), vehicle: other): 119 % of control
- T/C (dose: 5.0 mg/kg/injection, schedule: Q01DX009 (ip), vehicle: other): 120 % of control
- T/C (dose: 10.0 mg/kg/injection, schedule: Q01DX009 (ip), vehicle: other): 121 % of control
- T/C (dose: 20.0 mg/kg/injection, schedule: Q01DX009 (ip), vehicle: other): 120 % of control

Compound: C[C@]12CC[C@H]3C(=CCc4cc(O)ccc43)[C@@H]1C/C(=N\O)C2=O
- T/C [1]: 115 % of control
- T/C (dose: 100.0 mg/kg/injection, schedule: Q04DX003 (ip), vehicle: saline with Tween-80): 100 % of control
- T/C [2]: 120 % of control
- T/C (dose: 200.0 mg/kg/injection, schedule: Q04DX003 (ip), vehicle: saline with Tween-80): 104 % of control
- T/C (dose: 400.0 mg/kg/injection, schedule: Q04DX003 (ip), vehicle: saline with Tween-80): 95 % of control

Compound: c1cc(C2CCOCC2)ccn1
- T/C [3]: 100 % of control
- T/C (dose: 12.5 mg/kg/injection, schedule: Q04DX003 (ip), vehicle: saline with Tween-80): 100 % of control
- T/C [4]: 90 % of control
- T/C (dose: 25.0 mg/kg/injection, schedule: Q04DX003 (ip), vehicle: saline with Tween-80): 100 % of control
- T/C [5]: 100 % of control
- T/C (dose: 50.0 mg/kg/injection, schedule: Q04DX003 (ip), vehicle: saline with Tween-80): 95 % of control

Compound: O=C1CC2(CCCC2)C(=O)N1c1cccc2ccccc12
- T/C [6]: 94 % of control
- T/C [7]: 106 % of control
- T/C [8]: 111 % of control

Compound: CSCCC(NC(=O)C(Cc1c[nH]c2ccccc12)NC(=O)OC(C)(C)C)C(=O)NN (stereo not drawn) (Boc-Trp-Met-NHNH2; configuration not given here)
- T/C [6]: 104 % of control and 105 % of control
- T/C [7]: 118 % of control
- T/C [8]: 119 % of control

Compound: CC1=NC(C)(Cc2ccccc2)SC1c1ccccc1 (configuration not stated)
- T/C [9]: 110 % of control
- T/C (dose: 50.0 mg/kg/injection, schedule: Q01DX005 (ip), vehicle: saline): 100 % of control
- T/C [10]: 96 % of control
- T/C (dose: 100.0 mg/kg/injection, schedule: Q01DX005 (ip), vehicle: saline): 106 % of control
- T/C (dose: 200.0 mg/kg/injection, schedule: Q01DX005 (ip), vehicle: saline): 101 % of control

Compound: Cc1cc(Cl)cc2[s+]snc12
- T/C [11]: 100 % of control
- T/C [12]: 101 % of control
- T/C [13]: 92 % of control

Compound: COc1cc2c(cc1OC)C1N(CC2)C(=O)NC1(C)C (configuration not stated)
- T/C [11]: 97 % of control
- T/C [12]: 103 % of control
- T/C [13]: 98 % of control

Compound: O=C(O)C1(NO)CCCCC1
- T/C (dose: 25.0 mg/kg/injection, schedule: Q01DX009 (ip), vehicle: Klucel (hydroxypropylcellulose) (HPC)): 105 % of control
- T/C [6]: 107 % of control and 110 % of control and 115 % of control
- T/C [5]: 107 % of control and 119 % of control
- T/C [7]: 105 % of control and 108 % of control and 119 % of control
- T/C [1]: 120 % of control and 123 % of control
- T/C [8]: 111 % of control and 87 % of control
- T/C [2]: 99 % of control and 119 % of control
- T/C (dose: 400.0 mg/kg/injection, schedule: Q01DX009 (ip), vehicle: Klucel (hydroxypropylcellulose) (HPC)): 110 % of control and 96 % of control
- T/C (dose: 600.0 mg/kg/injection, schedule: Q01DX009 (ip), vehicle: Klucel (hydroxypropylcellulose) (HPC)): 101 % of control and 98 % of control

Compound: CCOc1ccc(/C=N/NC(=O)c2ccc(O)c(OC)c2)cc1OC
- T/C (dose: 60.0 mg/kg/injection, schedule: Q01DX005 (ip), vehicle: saline): 100 % of control
- T/C (dose: 120.0 mg/kg/injection, schedule: Q01DX005 (ip), vehicle: saline): 102 % of control
- T/C (dose: 240.0 mg/kg/injection, schedule: Q01DX005 (ip), vehicle: saline): 95 % of control

Compound: O=C1C2C3C=CC(O3)C2C(=O)N1/N=C/c1cccc2ccccc12 (configuration not stated)
- T/C [9]: 99 % of control
- T/C [10]: 96 % of control
- T/C (dose: 200.0 mg/kg/injection, schedule: Q01DX005 (ip), vehicle: saline with Tween-80): 89 % of control

Compound: NC(=O)c1cnc2nc1NCCCCCCC2
- T/C (dose: 100.0 mg/kg/injection, schedule: Q04DX002 (ip), vehicle: Klucel (hydroxypropylcellulose) (HPC)): 100 % of control
- T/C (dose: 200.0 mg/kg/injection, schedule: Q04DX002 (ip), vehicle: Klucel (hydroxypropylcellulose) (HPC)): 98 % of control
- T/C (dose: 400.0 mg/kg/injection, schedule: Q04DX002 (ip), vehicle: Klucel (hydroxypropylcellulose) (HPC)): 90 % of control

Compound: Nc1ncnc2c1ncn2C1OCC(O)C1O (configuration not stated)
- T/C (dose: 50.0 mg/kg/injection, schedule: Q01DX009 (ip), vehicle: suspension in saline): 119 % of control
- T/C (dose: 100.0 mg/kg/injection, schedule: Q01DX009 (ip), vehicle: suspension in saline): 112 % of control

Compound: [Se]c1nc(N2CCOCC2)ncc1-c1ccccc1
- T/C (dose: 6.25 mg/kg/injection, schedule: Q01DX009 (ip), vehicle: saline with Tween-80): 100 % of control
- T/C [3]: 95 % of control
- T/C [4]: 95 % of control
- T/C [2]: 92 % of control

Compound: CC1CCC(C(C)C)C2(C1)OC(CCl)CS2 (configuration not stated)
- T/C [3]: 106 % of control
- T/C [4]: 114 % of control
- T/C [5]: 114 % of control and 124 % of control

Compound: CN(C)C(CC(N)=O)C(=O)O (configuration not stated)
- T/C [14]: 101 % of control
- T/C [15]: 102 % of control
- T/C [16]: 97 % of control

Compound: COc1cccc(C(O)c2ccncc2)c1OC (configuration not stated)
- T/C (dose: 25.0 mg/kg/injection, schedule: Q01DX009 (ip), vehicle: water): 90 % of control
- T/C [14]: 90 % of control
- T/C [15]: 93 % of control
- T/C [16]: 90 % of control

Compound: COC(=O)C1=C(C(=O)OC)P2(C)(C)SC(=S)N2C1(c1ccccc1)c1ccccc1
- T/C (dose: 50.0 mg/kg/injection, schedule: Q01DX005 (ip), vehicle: Klucel (hydroxypropylcellulose) (HPC)): 102 % of control
- T/C (dose: 100.0 mg/kg/injection, schedule: Q01DX005 (ip), vehicle: Klucel (hydroxypropylcellulose) (HPC)): 91 % of control
